Measurements: US20030229122A1, “Use of methylphenidate compounds to enhance memory” (Sention, Inc., priority 2000, published 2003)
“Also recorded” adds a separate entry of the source.

Assays:
IA memory in the rat = assay: Inhibitory Avoidance (IA) task, retention latency in normal rats; format: in vivo
Method: An exemplary passive avoidance test utilizes an apparatus that consists of a lit chamber that can be separated from a dark chamber by a sliding door. At training, the animal is placed in the lit chamber for some period of time, and the door is opened. The animal moves to the dark chamber after a short delay—the latency—that is recorded. Upon entry into the dark chamber, the door is shut closed and a foot shock is delivered. Retention of the experience is determined after various time intervals, e.g., 24 or 48 hours, by repeating the test and recording the latency. The protocol is one of many variants of the passive avoidance procedures (for review, see Rush (1988) Behav Neural Biol 50:255).
The Inhibitory Avoidance (IA) task is a well-studied behavioral paradigm which can provide the researcher with a consistent and long-lasting measure of memory. The paradigm consists of one training trial and one retention trial. Test articles may be administered to the rats either before or after training. Improved memory, as a result of test compound administration, is evident as increased latency on the retention trial. The objective of the following experiments was to investigate the effects of methylphenidate on IA memory in the rat.
In this experiment, rats were injected with three different doses of methylphenidate thirty minutes prior to training on the IA task.
Rats were injected with 5 mg/kg of methylphenidate and trained on the IA task.
In this experiment, the time of drug administration was varied in order to determine the optimal pre-training drug administration time.
This experiment was conducted in order to determine whether the enhanced retention observed in Experiment 2 was long-lasting. Rats received a second retention test one week after the first retention test. No additional training or drug was administered to the animals in the interim period.
In the next experiment, we investigated whether the performance of amnesic rats could be improved by administration of methylphenidate. In this experiment, control rats and rats with lesions of the fornix received injections of either saline or methylphenidate (5 mg/kg), and one hour later, were tested on the IA task.

[1] = tested on: rats with lesions of the fornix; assay: Inhibitory Avoidance (IA) task in rats with lesions of the fornix (amnesic rats); format: in vivo, rat; settings: 5 mg/kg, tested one hour after injection
Description: Applicants have previously described an animal model for studying fornix-mediated memory consolidation. See, for example, Taubenfield et al., Supra. The fornix-lesioned animals can be used for drug screening, e.g., to identify dosages of the subject compositions which enhance memory consolidation. The lesioned mammal can have a lesion of the fornix or a related brain structure that disrupts memory consolidation (e.g., perirhinal cortex, amygdala, medial septal nucleus, locus coeruleus, hippocampus, mammillary bodies). Lesions in the mammal can be produced by mechanical or chemical disruption. For example, the fornix lesion can be caused by surgical ablation, electrolytic, neurotoxic and other chemical ablation techniques, or reversible inactivation such as by injection of an anesthetic, e.g., tetrodotoxin or lidocaine, to temporarily arrest activity in the fornix.
In one embodiment, the animal can be a rat. Briefly, the animals are anesthetized, e.g., with intraperitoneal injections of a ketamine-xylazine mixture and positioned in a Kopf stereotaxic instrument. A sagittal incision is made in the scalp and a craniotomy is performed extending 2.0 mm posterior and 3.0 mm lateral from Bregma. […]

## COC(=O)C(c1ccccc1)C1CCCCN1 (stereo not drawn) [methylphenidate, methyl α-phenyl-2-piperidineacetate]
IA memory in the rat; normal control rats, 5 mg/kg, tested one hour after injection, post hoc p<0.05, 5 mg/kg
  IA performance of normal rats (FIG. 3): dramatically enhanced; also recorded: significantly enhanced relative to all other experimental groups
IA memory in the rat; rats, 5 mg/kg injected thirty minutes prior to training
  retention on the IA task (FIG. 1): improved retention
IA memory in the rat; rats, 5 mg/kg, time of administration varied
  optimal pre-training drug administration time: most effective when administered to the rats one hour prior to training
IA memory in the rat; rats, 5 mg/kg, unpaired t-test p<0.03
  retention of the IA task, verifying experiment (FIG. 2): significantly improved retention
IA memory in the rat; rats, 10 mg/kg injected thirty minutes prior to training
  retention on the IA task (FIG. 1): no effect
IA memory in the rat; rats, 15 mg/kg injected thirty minutes prior to training
  retention on the IA task (FIG. 1): no effect
IA memory in the rat; rats, one week after the first retention test, no additional training or drug, t(54)=2.358, p<0.0220
  long-term retention, second retention test: still significantly enhanced
[1]
  IA performance of fornix lesion rats (FIG. 3): appeared to improve; also recorded: not significantly different from normal, saline injected animals
